# Laboratory results published in patent US20260234164A1, “BIPHENYL COMPOUND AS IMMUNOMODULATOR, PREPARATION METHOD THEREFOR AND USE THEREOF” (SHENZHEN CHIPSCREEN BIOSCIENCES CO., LTD., priority 2021, published 2026).
# Key:
# CD80/PD-L1 binding = target: T1, CD80/PD-L1 binding (Homo sapiens, UniProt Q9NZQ7); assay: HTRF inhibition of CD80/PD-L1 binding in vitro; conditions: His-CD80 100 nM, PD-L1-Fc 2 nM, read-out: IC50 inhibiting CD80/PD-L1 binding in vitro
# T1 construct: purchased Sino Biological Inc. 10084-H02H-100 (PD-L1-Fc); 10698-H08H-100 (His-CD80)
# T1 sequence (Q9NZQ7 19-239 limits assumed): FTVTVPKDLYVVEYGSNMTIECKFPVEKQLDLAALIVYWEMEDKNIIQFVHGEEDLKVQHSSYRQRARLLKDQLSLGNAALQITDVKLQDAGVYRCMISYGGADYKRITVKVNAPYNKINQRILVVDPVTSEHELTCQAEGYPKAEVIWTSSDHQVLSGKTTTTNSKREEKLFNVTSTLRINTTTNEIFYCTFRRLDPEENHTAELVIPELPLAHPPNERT
# Text: In addition to PD-1, PD-L1 can also exert immunosuppressive activity by binding to CD80. Similarly, in vitro experiments of binding or binding inhibition of CD80 and PD-L1 can also be measured by homogeneous time-resolved fluorescence (HTRF). When the anti-hFc-Eu^3+ antibody and anti-His-XL665 antibody were bound to the hFC tag fused to PD-L1 and the His tag fused to CD80 respectively, and excited with a 320 nm wavelength laser, the binding of PD-L1 and CD80 enabled energy to be transferred from the Eu element to the XL665 fluorescein, which was excited to emit light. When the inhibitor of the interaction between PD-L1 and CD80 was added, the combination of the two was destroyed, so that the distance between Eu and XL665 was far away, the energy cannot be transferred, and XL665 would not be excited.
# (§1) Recombinant human CD80 protein with His tag (His-CD80 protein, Cat #: 10698-H08H-100), and recombinant human PD-L1-Fc fusion protein (PD-L1-Fc fusion protein, Cat #: 10084-H02H-100) were purchased from Sino Biological Inc., anti-hFc-Eu^3+ antibody and anti-His-XL665 antibody were purchased from Cisbio Company, and other related reagents such as dilution buffer (Diluent buffer 5, Cat #: 62DL5DDC), detection buffer (PPI-Europium detection buffer, Cat #: 61DB9RDF) were purchased from Cisbio Company. Fluorescence detection instrument Tecan (Spark 10 M) was purchased from Switzerland Tecan Company.
# (§2) (1) Experimental preparation: The test compound was diluted with dilution buffer into different concentration gradients (the highest final concentration in 20 μL final reaction system was 10 μM), His-CD80 protein was diluted to 800 nM (the final concentration in 20 μL final reaction system was 100 nM), and the PD-L1-Fc fusion protein was diluted to 16 nM (final concentration was 2 nM). The anti-His-XL665 antibody and anti-hFc-Eu^3+ antibody were respectively diluted 20 times and 100 times using the detection buffer according to the reagent requirements.
# (§3) (2) 5 μL of test compound, 2.5 μL of Hid-CD80 protein and 2.5 μL of PD-1-Fc fusion protein solution were mixed, and incubated at room temperature for 15 min. Then the system was added with 5 μL of anti-His-XL665 antibody and 5 μL of anti-hFc-Eu^3+ antibody, incubated for another 3 h, and then detected.
# (3) When detecting the reaction, a control group was provided, including a 0% inhibition positive control without adding test compounds and a 100% inhibition negative control without adding CD-80 protein. All detections were performed with duplicates.
# (§4) (4) The fluorescence signal of each well was measured using a fluorescence detector Tecan (Spark 10M) at an excitation wavelength of 320 nm, and emission wavelengths of 620 nm and 665 nm, respectively. The intensity of the mutual binding of CD80 and PD-L1 referred to the ratio of fluorescence signals Em665/Em620.
# (§5) (5) The binding inhibition rate of the test compound was calculated as follows: Inhibition rate (%)=[1−(Fluorescence signal ratio of detection well-fluorescence signal ratio of 100% inhibition negative control)]/(fluorescence signal ratio of 0% inhibition positive control-fluorescence signal ratio of 100% inhibition negative control)×100%. After calculating the inhibition rate on CD80/PD-L1 binding of the test compounds with different concentration gradients, the 50% inhibitory concentration (IC50) was calculated.
# PD-1/PD-L1 binding = target: T2, PD-1/PD-L1 binding (Homo sapiens, UniProt Q9NZQ7); assay: HTRF inhibition of PD-1/PD-L1 binding in vitro; conditions: His-PD-1 100 nM, PD-L1-Fc 2 nM, read-out: IC50 inhibiting PD-1/PD-L1 binding in vitro
# T2 construct: purchased Sino Biological Inc. 10084-H02H-100 (PD-L1-Fc); 10377-H08H-50 (His-PD-1)
# T2 sequence (Q9NZQ7 19-239 limits assumed): as above
# Text: Homogeneous Time-Resolved Fluorescence (HTRF): This method used the recombinant human PD-L1 protein fused to express the hFc tag and the recombinant human PD-1 protein fused to express the His tag, both of which were interacting ligands and receptors. When the anti-hFc antibody containing Eu element chelation marker and the anti-His antibody labeled with XL665 fluorescein were bound with the above two corresponding labels, and excited by a laser with a wavelength of 320 nm, the ligand-receptor binding enabled the energy to be transferred from the Eu element to the XL665 fluorescein, which was excited to emit light at a wavelength of 665 nm. However, when an inhibitor of the interaction between PD-L1 and PD-1 was added, the binding of the ligand to the receptor was destroyed, so that the distance between Eu and XL665 was far away, the energy cannot be transferred, and XL665 would not be excited.
# as §1, with “PD-1” for “CD80”, “(His-PD-1” for “(His-CD80”, “10377-H08H-50),” for “10698-H08H-100),”, “[…]” for “anti-hFc-Eu^3+”
# as §2, with “His-PD-1” for “His-CD80”
# as §3, with “PD-L1-Fc fusion” for “Hid-CD80”, “His-PD-1” for “PD-1-Fc fusion”
# (3) When detecting the reaction, a control group was also provided, including a 0% inhibition positive control without adding test compounds and a 100% inhibition negative control without adding PD-1 protein. All detections were performed with duplicates.
# as §4, with “PD-1” for “CD80”
# as §5, with “PD-1/PD-L1” for “CD80/PD-L1”
SMILES,IC50 (CD80/PD-L1 binding) [nM],IC50 (PD-1/PD-L1 binding) [nM]
"[2H]C([2H])([2H])OCC12CCC(CCN3CCc4c(nc(C(=O)Nc5cccc(-c6cccc(NC(=O)c7nc8c(n7C([2H])([2H])[2H])CCN(CCC79CCC(C(=O)O)(CC7)C9)C8)c6Cl)c5C)n4C([2H])([2H])[2H])C3)(CC1)C2 [Compound I-9, 4-(2-(2-((2-chloro-3′-(5-(2-(4-((methoxy-d3)methyl)bicyclo[2.2.1]heptane-1-yl)ethyl)-1-(methyl-d3)-4,5,6,7-tetrahydro-1H-imidazo[4,5-c]pyridine-2-carboxamido)-2′-methyl-[1,1′-biphenyl]-3-yl)carbamoyl)-1-(methyl-d3)-1,4,6,7-tetrahydro-5H-imidazo[4,5-c]pyridin-5-yl)ethyl)bicyclo[2.2.1]heptane-1-carboxylic acid]",3.42,3.77
"[2H]C([2H])([2H])OCC12CCC(CCN3CCc4c(nc(C(=O)Nc5cccc(-c6cccc(NC(=O)c7nc8c(n7C)CCN(CCC79CCC(C(=O)O)(CC7)C9)C8)c6Cl)c5F)n4C)C3)(CC1)C2 (single isomer, unassigned) [Compound I-2, 4-(2-(2-((2-chloro-2′-fluoro-3′-(5-(2-(4-((methoxy-d3)methyl)bicyclo[2.2.1]heptane-1-y 1)ethyl)-1-methyl-4,5,6,7-tetrahydro-1H-imidazo[4,5-c]pyridine-2-carboxamido)-[1,1′-biphenyl]-3-yl)carbamoyl)-1-methyl-1,4,6,7-tetrahydro-5H-imidazo[4,5-c]pyridin-5-yl)ethyl)bicyclo[2.2.1]heptane-1-carboxylic acid]",1.09,1.52
"[2H]C([2H])([2H])n1c(C(=O)Nc2cccc(-c3cccc(NC(=O)c4nc5c(n4C([2H])([2H])[2H])CCN(CCC46CCC(COC)(CC4)C6)C5)c3Cl)c2C)nc2c1CCN(CCC13CCC(C(=O)O)(CC1)C3)C2 [Compound I-12, 4-(2-(2-((2′-chloro-3′-(5-(2-(4-(methoxymethyl)bicyclo[2.2.1]heptane-1-yl)ethyl)-1-(methyl-d3)-4,5,6,7-tetrahydro-1H-imidazo[4,5-c]pyridine-2-carboxamido)-2-methyl-[1,1′-biphenyl]-3-yl)carbamoyl)-1-(methyl-d3)-1,4,6,7-tetrahydro-5H-imidazo[4,5-c]pyridin-5-yl)ethyl)bicyclo [2.2.1]heptane-1-carboxylic acid]",2.94,3.8
"[2H]C([2H])([2H])OCC12CCC(CCN3CCc4c(nc(C(=O)Nc5cccc(-c6cccc(NC(=O)c7nc8c(n7C([2H])([2H])[2H])CCN(CCC79CCC(C(=O)O)(CC7)C9)C8)c6C)c5Cl)n4C([2H])([2H])[2H])C3)(CC1)C2 [Compound I-11, 4-(2-(2-((2′-chloro-3′-(5-(2-(4-((methoxy-d3)methyl)bicyclo[2.2.1]heptane-1-yl)ethyl)-1-(methyl-d3)-4,5,6,7-tetrahydro-1H-imidazo[4,5-c]pyridine-2-carboxamido)-2-methyl-[1,1′-biphenyl]-3-yl)carbamoyl)-1-(methyl-d3)-1,4,6,7-tetrahydro-5H-imidazo[4,5-c]pyridin-5-yl)ethyl)bicyclo[2.2.1]heptane-1-carboxylic acid]",3.21,4.21
"[2H]C([2H])([2H])OCC12CCC(CCN3CCc4c(nc(C(=O)Nc5cccc(-c6cccc(NC(=O)c7nc8c(n7C([2H])([2H])[2H])CCN(CCC79CCC(C(=O)O)(CC7)C9)C8)c6Cl)c5F)n4C([2H])([2H])[2H])C3)(CC1)C2 (single isomer, unassigned) [Compound I-7, 4-(2-(2-((2-chloro-2′-fluoro-3′-(5-(2-(4-((methoxy-d3)methyl)bicyclo[2.2.1]heptane-1-yl)ethyl)-1-(methyl-d3)-4,5,6,7-tetrahydro-1H-imidazo[4,5-c]pyridine-2-carboxamido)-[1,1′-biphenyl]-3-yl)carbamoyl)-1-(methyl-d3)-1,4,6,7-tetrahydro-5H-imidazo[4,5-c]pyridin-5-yl)ethyl)bicyclo[2.2.1]heptane-1-carboxylic acid]",1.94,1.38
"[2H]C([2H])([2H])OCC12CCC(CCN3CCc4c(nc(C(=O)Nc5cccc(-c6cccc(NC(=O)c7nc8c(n7C([2H])([2H])[2H])CCN(CCC79CCC(C(=O)O)(CC7)C9)C8)c6Cl)c5Cl)n4C([2H])([2H])[2H])C3)(CC1)C2 [Compound I-5, 4-(2-(2-((2,2′-dichloro-3′-(5-(2-(4-((methoxy-d3)methyl)bicyclo[2.2.1]heptane-1-yl)ethyl)-1-(methyl-d3)-4,5,6,7-tetrahydro-1H-imidazo[4,5-c]pyridine-2-carboxamido)-[1,1′-biphenyl]-3-yl)carbamoyl)-1-(methyl-d3)-1,4,6,7-tetrahydro-5H-imidazo[4,5-c]pyridin-5-yl)ethyl)bicyclo[2.2.1]heptane-1-carboxylic acid]",1.12,1.02
